Several values for one entry are separate records, joined by “and”; a condition that tells them apart may be missing. Equal entries are not always repeated. Toxic doses and inconclusive results are not listed. Square brackets hold non-standard residues; d marks the D form. Peptide text beside a SMILES is read from it. * marks the point of attachment. ξ: configuration not given here. Cbz = O=C(OCc1ccccc1)*; ξV = CC(C)C(N)C(=O)O; OBn = c1ccc(CO*)cc1
Tested on: L1210 leukemia ip in BDF1 mice, survival T/C
Assay: NCI In Vivo Anticancer Drug Screen. Data for tumor model L1210 Leukemia (intraperitoneal) in B6D2F1 (BDF1) mice
Settings: endpoint: mean survival time, higher = longer survival
Summary of the method: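 Ratio derived from survival: compound-dosed mice over vehicle-dosed mice, all bearing a transplantable tumor.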

[1] = dose: 100.0 mg/kg/injection, schedule: Q01DX009 (ip), vehicle: Klucel (hydroxypropylcellulose) (HPC)
[2] = dose: 200.0 mg/kg/injection, schedule: Q01DX009 (ip), vehicle: Klucel (hydroxypropylcellulose) (HPC)
[3] = dose: 400.0 mg/kg/injection, schedule: Q01DX009 (ip), vehicle: Klucel (hydroxypropylcellulose) (HPC)
[4] = dose: 100.0 mg/kg/injection, schedule: Q01DX009 (ip), vehicle: saline with Tween-80
[5] = dose: 200.0 mg/kg/injection, schedule: Q01DX009 (ip), vehicle: saline with Tween-80
[6] = dose: 400.0 mg/kg/injection, schedule: Q01DX009 (ip), vehicle: saline with Tween-80
[7] = dose: 100.0 mg/kg/injection, schedule: Q04DX003 (ip), vehicle: Klucel (hydroxypropylcellulose) (HPC)
[8] = dose: 200.0 mg/kg/injection, schedule: Q04DX003 (ip), vehicle: Klucel (hydroxypropylcellulose) (HPC)
[9] = dose: 400.0 mg/kg/injection, schedule: Q04DX003 (ip), vehicle: Klucel (hydroxypropylcellulose) (HPC)
[10] = dose: 100.0 mg/kg/injection, schedule: Q04DX002 (ip), vehicle: saline with Tween-80
[11] = dose: 200.0 mg/kg/injection, schedule: Q04DX002 (ip), vehicle: saline with Tween-80
[12] = dose: 400.0 mg/kg/injection, schedule: Q04DX002 (ip), vehicle: saline with Tween-80

In the case of CCCCCCCCCCCCN1CC1, the T/C (dose: 10.0 mg/kg/injection, schedule: Q01DX009 (ip), vehicle: Klucel (hydroxypropylcellulose) (HPC)) is reported as 108 % of control and the T/C (dose: 20.0 mg/kg/injection, schedule: Q01DX009 (ip), vehicle: Klucel (hydroxypropylcellulose) (HPC)) is reported as 109 % of control.

For O=C1c2ccccc2C(=O)c2[nH]c(-c3ccccc3)cc21, the T/C (dose: 100.0 mg/kg/injection, schedule: Q01DX001 (ip), vehicle: saline with Tween-80) was 94 % of control, the T/C (dose: 200.0 mg/kg/injection, schedule: Q01DX001 (ip), vehicle: saline with Tween-80) was 94 % of control and the T/C (dose: 400.0 mg/kg/injection, schedule: Q01DX001 (ip), vehicle: saline with Tween-80) was 94 % of control.

With CSc1ccc(OC(=O)Nc2ccc(Cl)cc2Cl)cc1C the T/C [1] was 95 % of control, the T/C [2] was 98 % of control and the T/C [3] was 95 % of control.

CC(=O)N1c2cc3ccccc3cc2N(C(C)=O)c2cc3ccccc3cc21 was tested, and the T/C (dose: 100.0 mg/kg/injection, schedule: Q01DX001 (ip), vehicle: acetone) was 92 % of control, the T/C [4] was 103 % of control and the T/C (dose: 200.0 mg/kg/injection, schedule: Q01DX001 (ip), vehicle: acetone) was 90 % of control. For the same compound, the T/C [5] was 106 % of control, the T/C (dose: 400.0 mg/kg/injection, schedule: Q01DX001 (ip), vehicle: acetone) was 88 % of control and the T/C [6] was 95 % of control.

COc1cc(C(=O)O)c(Cc2ccccc2)c(OC)c1O was tested, and the T/C (dose: 5.0 mg/kg/injection, schedule: Q01DX001 (ip), vehicle: saline) was 95 % of control, the T/C (dose: 10.0 mg/kg/injection, schedule: Q01DX001 (ip), vehicle: saline) was 97 % of control and the T/C (dose: 20.0 mg/kg/injection, schedule: Q01DX001 (ip), vehicle: saline) was 95 % of control. The T/C (dose: 40.0 mg/kg/injection, schedule: Q01DX001 (ip), vehicle: saline) was 95 % of control and the T/C (dose: 80.0 mg/kg/injection, schedule: Q01DX001 (ip), vehicle: saline) was 95 % of control.

For CCOC(=O)OC(C#N)c1ccccc1 (stereo not drawn), the T/C (dose: 12.5 mg/kg/injection, schedule: Q01DX009 (ip), vehicle: saline with Tween-80) was 93 % of control and the T/C (dose: 25.0 mg/kg/injection, schedule: Q01DX009 (ip), vehicle: saline with Tween-80) was 94 % of control.

In the case of CC(C)C(NC(=O)CNC(=O)CNC(=O)OCc1ccccc1)C(=O)OCc1ccccc1 (stereo not drawn) (Cbz-Gly-Gly-[ξV]-OBn), the T/C [7] is reported as 95 % of control, the T/C [8] is reported as 96 % of control and the T/C [9] is reported as 96 % of control.

With O=C(c1ccccc1)C(Br)C(c1ccccc1)c1ccccc1 (stereo not drawn) the T/C [1] was 94 % of control, the T/C [7] was 104 % of control and the T/C [2] was 94 % of control. The T/C [8] was 104 % of control, the T/C [3] was 100 % of control and the T/C [9] was 98 % of control.

CC1(/C=N/Nc2nnc(N/N=C/C3(C)CCC=CO3)c3ccccc23)CCC=CO1 (stereo not drawn) was tested, and the T/C (dose: 50.0 mg/kg/injection, schedule: Q01DX001 (ip), vehicle: carboxymethylcellulose (CMC)) was 106 % of control, the T/C (dose: 100.0 mg/kg/injection, schedule: Q01DX001 (ip), vehicle: carboxymethylcellulose (CMC)) was 104 % of control and the T/C (dose: 200.0 mg/kg/injection, schedule: Q01DX001 (ip), vehicle: carboxymethylcellulose (CMC)) was 87 % of control.

For CC(=O)Nc1ccc(C(C)C)cc1, the T/C [1] was 103 % of control, the T/C [2] was 95 % of control and the T/C [3] was 94 % of control.

For COc1cccc(NC(=O)N(CCCl)N=O)c1, the T/C (dose: 4.5 mg/kg/injection, schedule: Q01DX001 (ip), vehicle: carboxymethylcellulose (CMC)) was 122 % of control, the T/C (dose: 18.0 mg/kg/injection, schedule: Q01DX001 (ip), vehicle: carboxymethylcellulose (CMC)) was 159 % of control and the T/C (dose: 26.0 mg/kg/injection, schedule: Q01DX001 (ip), vehicle: carboxymethylcellulose (CMC)) was 151 % of control. The T/C (dose: 40.0 mg/kg/injection, schedule: Q01DX001 (ip), vehicle: carboxymethylcellulose (CMC)) was 188 % of control, the T/C (dose: 60.0 mg/kg/injection, schedule: Q01DX001 (ip), vehicle: carboxymethylcellulose (CMC)) was 87 % of control and the T/C (dose: 93.0 mg/kg/injection, schedule: Q01DX001 (ip), vehicle: carboxymethylcellulose (CMC)) was 87 % of control.

In the case of Nc1ccc(C(=O)Nc2cccc(S(=O)(=O)F)c2)cc1, the T/C (dose: 100.0 mg/kg/injection, schedule: Q01DX001 (ip), vehicle: saline) is reported as 107 % of control, the T/C (dose: 200.0 mg/kg/injection, schedule: Q01DX001 (ip), vehicle: saline) is reported as 106 % of control and the T/C (dose: 400.0 mg/kg/injection, schedule: Q01DX001 (ip), vehicle: saline) is reported as 90 % of control.

O=C(CCN1CC1)OC1CCCC1 was tested, and the T/C (dose: 0.25 mg/kg/injection, schedule: Q01DX009 (ip), vehicle: Klucel (hydroxypropylcellulose) (HPC)) was 91 % of control, the T/C (dose: 0.5 mg/kg/injection, schedule: Q01DX009 (ip), vehicle: Klucel (hydroxypropylcellulose) (HPC)) was 97 % of control and the T/C (dose: 1.0 mg/kg/injection, schedule: Q01DX009 (ip), vehicle: Klucel (hydroxypropylcellulose) (HPC)) was 103 % of control. For the same compound, the T/C (dose: 2.5 mg/kg/injection, schedule: Q01DX009 (ip), vehicle: Klucel (hydroxypropylcellulose) (HPC)) was 100 % of control, the T/C (dose: 20.0 mg/kg/injection, schedule: Q04DX003 (ip), vehicle: Klucel (hydroxypropylcellulose) (HPC)) was 98 % of control and the T/C (dose: 40.0 mg/kg/injection, schedule: Q04DX003 (ip), vehicle: Klucel (hydroxypropylcellulose) (HPC)) was 97 % of control. For the same compound, the T/C (dose: 80.0 mg/kg/injection, schedule: Q04DX003 (ip), vehicle: Klucel (hydroxypropylcellulose) (HPC)) was 97 % of control and the T/C [7] was 102 % of control.

In the case of CCCCCCCCCCCC1CCCC2CCCCC12 (stereo not drawn), the T/C [10] is reported as 91 % of control, the T/C [11] is reported as 91 % of control and the T/C [12] is reported as 100 % of control.

In the case of COc1c(OC)c2c3c(c(-c4c(C)cc5c(C(C)C)c(OC)c(OC)c6c5c4OC6=O)c(C)cc3c1C(C)C)OC2=O, the T/C (dose: 75.0 mg/kg/injection, schedule: Q04DX003 (ip), vehicle: Klucel (hydroxypropylcellulose) (HPC)) is reported as 105 % of control, the T/C (dose: 150.0 mg/kg/injection, schedule: Q04DX003 (ip), vehicle: Klucel (hydroxypropylcellulose) (HPC)) is reported as 92 % of control and the T/C (dose: 300.0 mg/kg/injection, schedule: Q04DX003 (ip), vehicle: Klucel (hydroxypropylcellulose) (HPC)) is reported as 92 % of control.

With S=C(N/N=C/c1ccccc1Cl)Nc1ccccc1 the T/C [1] was 95 % of control, the T/C [2] was 100 % of control and the T/C [3] was 101 % of control.

In the case of Cc1ccc(NS(=O)(=O)c2ccc(F)cc2)c(C)c1, the T/C [1] is reported as 94 % of control, the T/C [7] is reported as 100 % of control and the T/C [2] is reported as 94 % of control. The T/C [8] was 97 % of control, the T/C [3] was 101 % of control and the T/C [9] was 101 % of control.

In the case of O=C(Nc1cccc(C(F)(F)F)c1)c1ccco1, the T/C [1] is reported as 93 % of control, the T/C (dose: 100.0 mg/kg/injection, schedule: Q04DX002 (ip), vehicle: Klucel (hydroxypropylcellulose) (HPC)) is reported as 106 % of control and the T/C [2] is reported as 96 % of control. The T/C (dose: 200.0 mg/kg/injection, schedule: Q04DX002 (ip), vehicle: Klucel (hydroxypropylcellulose) (HPC)) was 95 % of control, the T/C [3] was 109 % of control and the T/C (dose: 400.0 mg/kg/injection, schedule: Q04DX002 (ip), vehicle: Klucel (hydroxypropylcellulose) (HPC)) was 104 % of control.

With CSc1ncc(Br)c(C(=O)O)n1 the T/C [4] was 93 % of control, the T/C [5] was 93 % of control and the T/C [6] was 94 % of control.

In the case of COC1OC2COC(c3ccccc3)OC2C(OC(=O)c2ccccc2)C1OC(=S)SCc1ccccc1 (stereo not drawn), the T/C (dose: 12.5 mg/kg/injection, schedule: Q04DX002 (ip), vehicle: saline) is reported as 107 % of control, the T/C (dose: 25.0 mg/kg/injection, schedule: Q04DX002 (ip), vehicle: saline) is reported as 104 % of control and the T/C (dose: 50.0 mg/kg/injection, schedule: Q04DX002 (ip), vehicle: saline) is reported as 104 % of control.

O=[N+]([O-])c1cc([As](=O)(O)O)ccc1Cl was tested, and the T/C (dose: 50.0 mg/kg/injection, schedule: Q01DX009 (ip), vehicle: Klucel (hydroxypropylcellulose) (HPC)) was 97 % of control, the T/C [1] was 97 % of control and the T/C [7] was 100 % of control. The T/C [8] was 104 % of control.

For OCCCNc1nc2ccc(Br)cc2c2ccccc12, the T/C [1] was 100 % of control, the T/C [7] was 108 % of control and the T/C [2] was 89 % of control. The T/C [8] was 102 % of control, the T/C [3] was 95 % of control and the T/C [9] was 102 % of control.

With CSc1ccc(OC(=O)Nc2ccccc2C)cc1C the T/C [10] was 100 % of control, the T/C [11] was 100 % of control and the T/C [12] was 118 % of control.

CC(C)(C)C(O)c1ccccc1 (stereo not drawn) was tested, and the T/C (dose: 25.0 mg/kg/injection, schedule: Q04DX002 (ip), vehicle: saline with Tween-80) was 97 % of control, the T/C (dose: 50.0 mg/kg/injection, schedule: Q04DX002 (ip), vehicle: saline with Tween-80) was 93 % of control and the T/C [10] was 93 % of control and 92 % of control. The T/C [11] was 93 % of control and 95 % of control and the T/C [12] was 95 % of control.

From PubChem BioAssay AID248 (DTP/NCI, 2004)
